{"source": "patent US20190209596A1", "about": "“METHODS OF TREATING DISEASES” (Boehringer Ingelheim International GmbH, priority 2015, published 2019)", "origin": "cited, not measured here", "settings": "metformin on its own, in the diabetic"}
{"smiles": "CN(C)C(=N)N=C(N)N", "note": "[metformin]", "values": [{"measurement": "average improvement in the HbA1c value", "result": "1.0-1.5%"}]}
